This note sets out measurements from patent publication US12622872B2, “Process for the preparation of sterile ophthalmic aqueous fluticasone propionate form a nanocrystals suspensions” (Nicox Ophthalmics, Inc., priority 2019, dated 2026).

Data set [1] in a line: In vitro dissolution test (compartment diffusion through dialysis membrane, sink condition). Format: physicochemical. On the procedure:
Dissolution profiles of nanocrystals of Fluticasone propionate form A of two nanosuspensions of the invention and of Fluticasone propionate form 1 micronized were performed using a dissolution method.
The study was performed using a compartment diffusion analysis through a dialysis membrane and sink condition. The sink condition was achieved through the use of a receptor fluid containing 30 mM phosphate buffer, pH 7.4 with 5% HPβCD cyclodextrins and also by a complete replacement of the buffer every 24 hours to stay below the saturation point. The saturation point was estimated to be 5 μg/g under those experimental conditions and the measurements performed as well as the buffer replacement have shown a maximum concentration of 1.5 μg/g. The study was conducted at a temperature of 37° C. The details of the dissolution test method are provided below:
A 5-fold dilution with the formulation vehicle (placebo solution containing all the formulation excipients including the surfactants) of two 0.1% w/w Fluticasone propionate form A nanosuspensions was conducted to obtain a final concentration of 0.02% w/w Fluticasone propionate inside the dialysis device.
Fluticasone propionate form 1 micronized was suspended in the same phosphate buffer used in the receiving compartment of the dialysis system.
Fluticasone propionate release was carried at 1-2 RPM. […]
These aliquots were immediately centrifuged and the measurements were performed by HPLC

Data set [2] can be described thus: 14-day repeated dose study, plasma toxicokinetics. Also noted: species or system Beagle dogs. The settings on record: dog, in vivo. From the text: The purpose of this study was to evaluate the toxicokinetic of fluticasone propionate Form A nanosuspensions of the invention (see Table 10 below) administered via topical application directly to the rim (margin) of upper and lower eyelids of both eyes of Beagle dogs.
Fifty naïve Beagle dogs (25 males and 25 females), approximately 5-6 months old and weighing 5.7 to 8.8 kg for males and females at the outset of the study were assigned to treatment groups (groups 1-4) and to vehicle group.
Male and female Beagle dogs were dosed with fluticasone propionate at 1.6, 9.6, and 32 μg/day (bilateral QD topical application) or at 64 μg/day (bilateral BID topical application) via eye lid applicator directly to the upper and lower eyelids of both eyes once or twice daily (minimum of 6 hours between doses) for 14 consecutive days.
Blood for toxicokinetic evaluation was collected from all animals at selected time points on Days 1 and 14.

Setting [3] is: 1 h, second nanosuspension (Table 8).
The mark [4] stands for this setting: 3 h, second nanosuspension (Table 8).
Setting [5] is: 5 h, second nanosuspension (Table 8).
Where [6] appears, read: 19 h, second nanosuspension (Table 8).

With `CCC(=O)O[C@]1(C(=O)SCF)[C@H](C)C[C@H]2[C@@H]3C[C@H](F)C4=CC(=O)C=C[C@]4(C)[C@@]3(F)[C@@H](O)C[C@@]21C` [Fluticasone Propionate, fluticasone propionate], in data set [1] (receptor fluid 30 mM phosphate buffer, pH 7.4 with 5% HPβCD, 37° C.), the “maximum concentration in the receptor fluid” value is 1.5 µg/g. In data set [2], the “Dose dependence of exposure” value is given as “dose-dependent” and the “Gender-related differences in exposure” value is given as “no discernable gender-related differences”.
As for `CCC(=O)O[C@]1(C(=O)SCF)[C@H](C)C[C@H]2[C@@H]3C[C@H](F)C4=CC(=O)C=C[C@]4(C)[C@@]3(F)[C@@H](O)C[C@@]21C` [Fluticasone propionate form A nanocrystals], the “% Dissolution Average %” value in data set [1] (1 h) was found to be 0.0%; in data set [1] (setting [3]) it was 0.0%; in data set [1] (3 h) it was 0.8%; in data set [1] (setting [4]), 0.7%; in data set [1] (5 h), 2.2%; in data set [1] (setting [5]), 2.3%. For the same compound, the “% Dissolution Average %” value in data set [1] (setting [6]) was determined as 19.0%. Also, the “% Dissolution Tube #1” value was determined as 0.0% in data set [1] (1 h); 0.0% in data set [1] (setting [3]); 0.2% in data set [1] (3 h); 0.6% in data set [1] (setting [4]); 1.3% in data set [1] (5 h); 2.4% in data set [1] (setting [5]). The “% Dissolution Tube #1” value in data set [1] (setting [6]) is listed as 19.0%. For the same compound, the “% Dissolution Tube #2” value turned out to be 0.0% in data set [1] (1 h); 0.0% in data set [1] (setting [3]); 1.4% in data set [1] (3 h); 0.5% in data set [1] (setting [4]); 2.8% in data set [1] (5 h); 2.0% in data set [1] (setting [5]). Also, in data set [1] (24 h), the “% Dissolution Tube #2” value is on record as 24.0%. Also, the “% Dissolution Tube #3” value was found to be 0.0% in data set [1] (1 h); 0.0% in data set [1] (setting [3]); 0.7% in data set [1] (3 h); 0.8% in data set [1] (setting [4]); 2.4% in data set [1] (5 h); 2.6% in data set [1] (setting [5]). For the same compound, the “% Dissolution Tube #3” value in data set [1] (72 h) is listed as 74.0%. The “dissolution profile compared with Fluticasone propionate form 1 micronized material” value in data set [1] (tables 7-9) was “similar”.
`CCC(=O)O[C@]1(C(=O)SCF)[C@H](C)C[C@H]2[C@@H]3C[C@H](F)C4=CC(=O)C=C[C@]4(C)[C@@]3(F)[C@@H](O)C[C@@]21C` [Micronized Fluticasone propionate form 1, fluticasone propionate]: the figures for the “% Dissolution Average %” value in data set [1] (1 h), in data set [1] (3 h) and in data set [1] (5 h) were 0.0%, 0.7% and 2.6%, respectively. The results for the “% Dissolution Tube #1” value in data set [1] (1 h), in data set [1] (3 h) and in data set [1] (5 h) were 0.0%, 0.8% and 2.9%, respectively. Besides, the “% Dissolution Tube #2” value in data set [1] (1 h) was 0.0%; in data set [1] (3 h) it was 0.5%; in data set [1] (5 h), 1.9%; in data set [1] (48 h), 44.0%. Also, the “% Dissolution Tube #3” value in data set [1] (1 h) worked out at 0.0%; in data set [1] (3 h), 0.9%; in data set [1] (5 h), 3.0%.
